The values below are quoted from earlier work in patent US20160243144A1 (Oakdene Holdings LLC, priority 2015, published 2016).

For data set [1] the following is noted: given orally.
For data set [2] the following is noted: particularly in patients with HE.

As for `OC[C@H]1O[C@@H](O[C@@H]2[C@@H](CO)OC(O)(CO)[C@H]2O)[C@H](O)[C@@H](O)[C@H]1O` (mixture of isomers) [lactulose], in data set [1], the “time by which urinary excretion is essentially complete” value is not above 24 h and the urinary excretion is not above 3%.
As for `CO[C@H]1/C=C/O[C@@]2(C)Oc3c(C)c(O)c4c(O)c(c5c(nc6cc(C)ccn65)c4c3C2=O)NC(=O)/C(C)=C\C=C\[C@H](C)[C@H](O)[C@@H](C)[C@@H](O)[C@@H](C)[C@H](OC(C)=O)[C@@H]1C` [Rifaximin], the “intra-subject variability in Cmax or AUC” value in data set [2] was not below 30 % CV.
